In patent US9296745B2, “Diacylglycerol acyltransferase 2 inhibitors” (Pfizer Inc., priority 2012, dated 2016):
Where two headings read alike, the source gives them in different places.

Columns and labels:
Human DGAT2 (hDGAT2) = Human DGAT2 (hDGAT2) (Homo sapiens (Human), UniProt Q96PD7); assay: In vitro DGAT2 assay, IC50 determination with hDGAT2 membrane fraction; assay type: biochemical; details: geometric mean
Summary of the method: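 CHAPS-solubilized membrane fraction of FLAG-tagged hDGAT2 from baculovirus-infected SF9 cells (0.01 mg/mL) in 100 mM Hepes-NaOH pH 7.4, 20 mM MgCl2, 200 nM methyl arachidonyl fluorophosphonate; compounds pre-incubated 20 min with 0.04% BSA. Reaction 40 min at room temperature, stopped with H3PO4. [^14C]tridecanoylglycerol in organic phase counted; 11-point geometric mean IC50.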

DGAT2 = DGAT2 (Homo sapiens (Human), UniProt Q96PD7); assay: IC50 determination for DGAT2 inhibitors in human hepatocytes ([1,3-14C]-glycerol incorporation into lipids); assay type: cell-based; details: average IC50; cryopreserved human hepatocytes, selective DGAT1 inhibitor (3 μM) in all wells, 3 hour incubation with [1,3-14C]-glycerol; read-out: IC50 (nM) in primary human hepatocyte
Chain of DGAT2 (Q96PD7 whole entry): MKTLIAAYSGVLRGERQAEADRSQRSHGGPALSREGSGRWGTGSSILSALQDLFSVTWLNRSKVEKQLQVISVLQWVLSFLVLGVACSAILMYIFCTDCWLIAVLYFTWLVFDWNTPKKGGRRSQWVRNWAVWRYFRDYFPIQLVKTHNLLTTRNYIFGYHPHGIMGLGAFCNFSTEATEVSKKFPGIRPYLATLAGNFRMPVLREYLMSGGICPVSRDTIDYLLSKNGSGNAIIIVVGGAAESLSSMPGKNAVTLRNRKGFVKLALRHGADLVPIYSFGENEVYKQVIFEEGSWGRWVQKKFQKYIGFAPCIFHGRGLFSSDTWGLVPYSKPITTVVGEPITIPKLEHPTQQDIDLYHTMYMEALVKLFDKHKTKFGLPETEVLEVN
Method: For evaluation of the effects of DGAT2 inhibitors in a cell-based setting, cryopreserved human hepatocytes (Lot QOC, Celsis, Chicago, Ill.) were thawed and plated onto type I collagen-coated plates according to the manufacturer's instructions. After 24 hours overnight recovery period, the cells were overlayed with media containing 250 μg/ml Matrigel (BD Biosciences, San Jose, Calif.). The following day, media was aspirated and replaced with serum-free Williams Media E (Life Technologies, Grand Island, N.Y.) containing 400 μM sodium dodecanoate (Sigma-Aldrich, St. Louis, Mo.). Forty minutes later, DGAT2 inhibitors (prepared as 100× stocks in 25% DMSO, 75% Williams' Media E) were added to the desired final concentration. […] After a 20 minute preincubation, 0.2 μCi [1,3-^14C]-glycerol (American Radio Chemicals, St. Louis, Mo.) was added to each well and mixed by gentle pipetting prior to a 3 hour incubation. At this point, media was aspirated and the cells were lysed in isopropyl alcohol:tetrahydrofuran (9:1) prior to centrifugation at 3000 rpm for 5 minutes. Radiolabeled lipids were resolved using a 2-solvent system by thin layer chromatography using standard technique (solvent 1 contained ethyl acetate: isopropyl alcohol: chloroform:methanol:0.25% potassium chloride in water (100:100:100:40.2:36.1, v/v/v/v) and solvent 2 contained hexane: diethyl ether: acetic acid (70:27:3, v/v/v)). After separation, radiolabeled lipids were visualized using a Molecular Dynamics' PhosphorImager system. The half maximal inhibitory concentrations (IC50 values) were determined using Graph Pad Prism (GraphPad Software, Inc., La Jolla, Calif.).

[1] = background for complete inhibition of DGAT2 obtained with 50 μM (1R,2R)-2-({3′-Fluoro-4′-[(6-fluoro-1,3-benzothiazol-2-yl)amino]-1,1′-biphenyl-4-yl}carbonyl)cyclopentanecarboxylic acid, read-out: DGAT2 IC50
[2] = background for complete inhibition of DGAT2 obtained with Example 196-A instead of the cyclopentanecarboxylic acid reference, read-out: DGAT2 IC50 (nM), values in the parentheses

Chain of Human DGAT2 (hDGAT2) (Q96PD7 whole entry): as above

IC50 (Human DGAT2 (hDGAT2); [1])	IC50 (DGAT2)	IC50 (Human DGAT2 (hDGAT2); [2])	Compound
227 nM	25.1 nM	–	N#Cc1cnn(C2(c3nc4ccc(N5CCC[C@@H](C(=O)N6CCCC6)C5)nc4[nH]3)CC2)c1 [Example 76, (R)-1-(1-(5-(3-(Pyrrolidine-1-carbonyl)piperidin-1-yl)-3H-imidazo[4,5-b]pyridin-2-yl)cyclopropyl)-1H-pyrazole-4-carbonitrile]
363 nM	86.8 nM	–	CC(c1nc2ccc(N3CCC[C@@H](C(=O)N4CCCC4)C3)nc2[nH]1)n1cccn1 (stereo partly drawn) [Example 58, (R)-(1-(2-(1-(1H-Pyrazol-1-yl)ethyl)-3H-imidazo[4,5-b]pyridin-5-yl)piperidin-3-yl)(pyrrolidin-1-yl)methanone]
14.5 nM	4.6 nM	20.6 nM	C[C@@H](c1nc2ccc(N3CCC[C@@H](C(=O)N4CCCC4)C3)nc2[nH]1)n1cc(Cl)cn1 [Example 196-A, ((R)-1-(2-((S)-1-(4-Chloro-1H-pyrazol-1-yl)ethyl)-3H-imidazo[4,5-b]pyridin-5-yl)piperidin-3-yl)(pyrrolidin-1-yl)methanone]
101 nM	8.9 nM	–	O=C([C@@H]1CCCN(c2ncc3nc(C4(n5cc(F)cn5)CC4)[nH]c3n2)C1)N1CCCC1 [Example 209, (R)-(1-(8-(1-(4-Fluoro-1H-pyrazol-1-yl)cyclopropyl)-9H-purin-2-yl)piperidin-3-yl)(pyrrolidin-1-yl)methanone]
83.8 nM	9.4 nM	–	O=C([C@@H]1CCCN(c2ccc3nc(C4(n5cc(C(F)(F)F)cn5)CC4)[nH]c3n2)C1)N1CCCC1 [Example 78, (R)-Pyrrolidin-1-yl(1-(2-(1-(4-(trifluoromethyl)-1H-pyrazoL-1-yl)cyclopropyl)-3H-imidazo[4,5-b]pyridin-5-yl)piperidin-3-yl)methanone]
354 nM	10.7 nM	301 nM	O=C([C@H]1CN(c2ccc3nc(C4(n5cc(Cl)cn5)CC4)[nH]c3n2)CCO1)N1CCCC1 [Example 141, (R)-(4-(2-(1-(4-Chloro-1H-pyrazol-1-yl)cyclopropyl)-3H-imidazo[4,5-b]pyridin-5-yl)morpholin-2-yl)(pyrrolidin-1-yl)methanone]
165 nM	15.8 nM	–	O=C([C@@H]1CCCN(c2ccc3nc(C4(c5ccccn5)CC4)[nH]c3n2)C1)N1CCCC1 [Example 82, (R)-(1-(2-(1-(Pyridin-2-yl)cyclopropyl)-3H-imidazo[4,5-b]pyridin-5-yl)piperidin-3-yl)(pyrrolidin-1-yl)methanone]
96.9 nM	7.9 nM	85 nM	O=C([C@@H]1CCCN(c2ccc3nc(C4(n5cc(F)cn5)CC4)[nH]c3n2)C1)N1CCCC1 [Example 73, (R)-(1-(2-(1-(4-Fluoro-1H-pyrazol-1-yl)cyclopropyl)-3H-imidazo[4,5-b]pyridin-5-yl)piperidin-3-yl)(pyrrolidin-1-yl)methanone]
33.7 nM	5.5 nM	–	C[C@H](c1nc2ccc(N3CCC[C@@H](C(=O)N4CCCC4)C3)nc2[nH]1)n1cc(Cl)cn1 [Example 197, ((R)-1-(2-((R)-1-(4-chloro-1H-pyrazol-1-yl)ethyl)-3H-imidazo[4,5-b]pyridin-5-yl)piperidin-3-yl)(pyrrolidin-1-yl)methanone]
91.3 nM	71.7 nM	–	O=C([C@H]1CN(c2ccc3nc(-c4cccc(C(F)F)n4)[nH]c3n2)CCO1)N1CCCC1 [Example 175, (R)-(4-(2-(6-(Difluoromethyl)pyridin-2-yl)-3H-imidazo[4,5-b]pyridin-5-yl)morpholin-2-yl)(pyrrolidin-1-yl)methanone]
18.9 nM	2.5 nM	32.9 nM	C[C@H](c1nc2cnc(N3CCC[C@@H](C(=O)N4CCCC4)C3)nc2[nH]1)n1cc(Cl)cn1 [Example 199, ((R)-1-(8-((R)-1-(4-chloro-1H-pyrazol-1-yl)ethyl)-9H-purin-2-yl)piperidin-3-yl)(pyrrolidin-1-yl)methanone]
204 nM	47.7 nM	–	O=C([C@@H]1CCCN(c2ccc3nc(C4(c5cccnc5)CC4)[nH]c3n2)C1)N1CCCC1 [Example 81, (R)-(1-(2-(1-(Pyridin-3-yl)cyclopropyl-1)-3H-imidazo[4,5-b]pyridin-5-yl)piperidin-3-yl)(pyrrolidin-1-yl)methanone]
43 nM	7.8 nM	–	C[C@@H](c1nc2cnc(N3CCC[C@@H](C(=O)N4CCCC4)C3)nc2[nH]1)n1cc(Cl)cn1 [Example 198, ((R)-1-(8-((S)-1-(4-Chloro-1H-pyrazol-1-yl)ethyl)-9H-purin-2-yl)piperidin-3-yl)(pyrrolidin-1-yl)methanone]
28.7 nM	2.8 nM	26.2 nM	O=C([C@@H]1CCCN(c2ncc3nc(C4(n5cc(Cl)cn5)CC4)[nH]c3n2)C1)N1CCCC1 [Example 108, (R)-(1-(8-(1-(4-Chloro-1H-pyrazol-1-yl)cyclopropyl)-9H-purin-2-yl)piperidin-3-yl)(pyrrolidin-1-yl)methanone]
18.2 nM	15.9 nM	–	O=C([C@@H]1CCCN(c2ccc3nc(-c4ccnc(C5CC5)n4)[nH]c3n2)C1)N1CCCC1 [Example 95, (R)-(1-(2-(2-Cyclopropylpyrimidin-4-yl)-3H-imidazo[4,5-b]pyridin-5-yl)piperidin-3-yl)(pyrrolidin-1-yl)methanone]
1250 nM	–	–	CN(C)C(=O)c1cccc(-c2nc3ccc(N4CCC[C@@H](C(=O)N5CCCC5)C4)nc3[nH]2)n1 [Example 173, (R)—N,N-Dimethyl-6-(5-(3-(pyrrolidine-1-carbonyl)piperidin-1-yl)-3H-imidazo[4,5-b]pyridin-2-yl)picolinamide]
5.27 nM	–	–	CCOC(=O)C1(c2cccc(-c3nc4ccc(N5CCC[C@@H](C(=O)N6CCCC6)C5)nc4[nH]3)c2)CC1 [Example 124, (R)-Ethyl 1-(3-(5-(3-(pyrrolidine-1-carbonyl)piperidin-1-yl)-3H-imidazo[4,5-b]pyridin-2-yl)phenyl)cyclopropanecarboxylate]
1370 nM	–	–	Cn1ncnc1C1(c2nc3ccc(N4CCC[C@@H](C(=O)N5CCCC5)C4)nc3[nH]2)CC1 [Example 223, (R)-(1-(2-(1-(1-Methyl-1H-1,2,4-triazol-5-yl)cyclopropyl)-3H-imidazo[4,5-b]pyridin-5-yl)piperidin-3-yl)(pyrrolidin-1-yl)methanone]
702 nM	–	–	Cc1cccc(=O)n1Cc1nc2ccc(N3CCC[C@@H](C(=O)N4CCCC4)C3)nc2[nH]1 [Example 57, (R)-6-Methyl-1-((5-(3-(pyrrolidine-1-carbonyl)piperidin-1-yl)-3H-imidazo[4,5-b]pyridin-2-yl)methyl)pyridin-2(1H)-one]
59.3 nM	–	–	O=C([C@@H]1CCCN(c2ccc3nc(-c4ccnc(C5CC5)n4)[nH]c3n2)C1)N1CC[C@H](F)C1 [Example 65, ((R)-1-(2-(2-Cyclopropylpyrimidin-4-yl)-3H-imidazo[4,5-b]pyridin-5-yl)piperidin-3-yl)((S)-3-fluoropyrrolidin-1-yl)methanone]
22.2 nM	–	–	CN(C)c1cccc(-c2nc3ccc(N4CCC[C@@H](C(=O)N5CCCC5)C4)nc3[nH]2)n1 [Example 119, (R)-(1-(2-(6-(Dimethylamino)pyridin-2-yl)-3H-imidazo[4,5-b]pyridin-5-yl)piperidin-3-yl)(pyrrolidin-1-yl)methanone]
